Source: ChEMBL document CHEMBL1159282, “Secondary Mold Metabolites, Part 49. Isolation, Structural Elucidation, and Biomimetic Synthesis of Trametol, a New 1-Arylpropane-1,2-diol Produced by the Fungus Trametes sp” (J Nat Prod, 1995)
Active and inactive are the calls of the source.

How the values were obtained:
Format in all cases: functional, organism-based
Bacillus cereus = assay: Antimicrobial activity against Bacillus cereus at 150 ug/disk
Bacillus subtilis = assay: Antimicrobial activity against Bacillus subtilis at 150 ug/disk
Escherichia coli = assay: Antimicrobial activity against Escherichia coli at 150 ug/disk
Saccharomyces cerevisiae = assay: Antimicrobial activity against Saccharomyces cerevisiae at 150 ug/disk
[1] = test system: Cladosporium cladosporioides; assay: Antimicrobial activity against Cladosporium cladosporioides at 150 ug/disk

Measured: Activity

COc1ccc([C@@H](O)[C@H](C)O)cc1Cl
inactive: all assays above
